In US12043601B2, “N-substituted-1H-1,2,4-triazole-3-carboxamides, analogues thereof, and methods of treatment using same” (THE REGENTS OF THE UNIVERSITY OF COLORADO, priority 2018, dated 2024):
Converted amounts (≈) assume the structure as drawn. “And” between values parts separate entries of the source, which are not always exact repeats. Identical values can stand only once. “Also recorded” adds a separate entry of the source. Like-named read-outs stand apart in the source and are kept apart here.

Tests used:
[1] = Compound solubility; type: physicochemical; conditions: for Compound Solubility, 1 μM: solvent at 1 μM; for Compound Solubility, 10 μM: solvent at 10 μM; for Compound Solubility, 100 μM: solvent at 100 μM; for Compound Solubility, 1 mM: solvent at 1 mM; for Compound Solubility, 10 mM: solvent at 10 mM; for Compound Solubility, 16 mg/ml: solvent at 16 mg/ml
[2] = system: Salmonella strain 14028s; experiment: Growth and survival assay in combination with antibiotics that target DNA replication; type: cell-based; conditions: #21 8 μg/ml, #23 16 μg/ml; EG media, 37° C., 20 hrs
Procedure: Salmonella strain 14028s was grown overnight at 37° C. with shaking in LB broth. Cell density was measured by spectrometer by following OD600. Cells were centrifuged and washed once with EG Minimal Salts Media (57.4 mM K2HPO4, 1.7 mM MgSO4, 9.5 mM Citric acid, 16.7 mM H5NNaPO4, and 0.4% D-Glucose, pH 7.0). The specimens were then resuspended with EG media and adjusted to the final concentration of 1×10^5/ml.
One hundred microliters of the cell dilution were plated onto LB agar plate to verify the starting concentration. Ten 5-ml cell culture tubes were prepared, and the diluted cells were transferred to the culture tubes at 1 ml/tube. The first culture tube was reserved as the control. The remaining nine tubes were divided into 3 groups (3 tubes each), which were treated with Nitrofurazone, 4-Nitroquinoline N-oxide, and Mitomycin C at 8 μM, 8 μM, and 0.75 μM, respectively. Within each group, two of the tubes additionally received compounds #21 or #23 at 8 μg/ml and 16 μg/ml, respectively. All tubes were then incubated with shaking at 37° C. for 20 hrs. Cells were collected, diluted, plated on LB agar plates, and subsequently counted. Survival percentages were calculated using bacteria counts divided by starting concentration.

[3] = target: T1, DksA (Salmonella typhimurium, UniProt P0A1G5); experiment: DksA-dependent livJ in vitro transcription; type: biochemical; conditions: livJ promoter; for IVT: concentration showing activity
Procedure: (§1) To measure the potency of a compound in inhibition of DksA biological function, rpsMtranscripts in vitro was determined by non-radioactive in vitro transcription reactions with qPCR analysis with divergent compounds. Briefly, 5 nM pTIM-rpsMplasmid was mixed with 0.1-100 nM of compounds in 10 μl reaction buffer (40 mM HEPES [pH 7.4], 2 mM MgCl2, 60 mM potassium glutamate, 0.05% NP-40, 200 μM ATP, 200 μM GTP, 200 μM CTP, 200 μM UTP, and 5 nM E. coli RNA polymerase holoenzyme (NEB, Ipswich, MA) with 5 μM DksA. The in vitro transcription was carried out at 37° C. for 10 min, and then terminated at 70° C. for 10 min. To remove template DNA after treated with DNaseI, DNA-free DNA Removal kit (ThermoFisher) was used according to manufacturer's direction. The resulting materials were used as templates to generate cDNA with 100 U MMLV reverse transcriptase (Promega), 0.45 μM gene specific primer, and 20 U RNase inhibitor (Promega). The amount of cDNA synthesized for 1 h at 42° C. was quantified by real-time PCR (qRT-PCR). The copy number of specific transcripts was calculated to the standard curve generated with known gene copy concentrations. The IC50 is the concentration at which the curve passes through the 50% inhibition level. Standard deviation was calculated from 3 independent experiments.
(§2) The compounds were initially tested at 0.1 μM and 1 μM using as a target the promoter of the livJ gene that encodes a transporter of branch-chain amino acids (Table 4).

[4] = system: Salmonella strain 14028s; experiment: Minimum inhibitory concentration in EG minimal media; type: cell-based, Salmonella Typhimurium; conditions: for Growth in EG at concentration tested 1 μg/ml / Growth in EG at concentration tested 2 μg/ml / Growth in EG at concentration tested 4 μg/ml / Growth in EG at concentration tested 8 μg/ml / Growth in EG at concentration tested 16 μg/ml: EG minimal media, 37° C.
Procedure: (§3) DksA controls transcription of metabolic and virulence genes, allowing bacteria to both grow in minimum media and cause disease. Inhibition of bacterial growth in EG minimum media was used as an easy and reliable proxy of the DksA-dependent regulation of metabolism.
In a non-limiting example, wild-type Salmonella strain 14028s was grown overnight (18.5 h), and then diluted in EG minimal media to a density of about 10^5 CFU/mL. […] Each test tube was incubated at 37° C. with shaking for 18 h and bacterial growth was evaluated. The MIC value was determined as the lowest concentration of compound that inhibited growth.

[5] = target: T1, DksA; experiment: DksA-mediated repression of rpsM in vitro transcription (IVT, qRT-PCR); type: biochemical
Procedure: as §1
The compounds obtained in this screen were further analyzed for binding to the acidic pocket at the tip of DksA coiled-coil domain using the computer search program Dock. The analysis identified over 400 compounds. A panel of 40 compounds was selected from the top hits based on free energy binding scores. These compounds were investigated using the computer modeling program O. Two additional criteria were applied in order to narrow down the list of candidates: First, the compounds needed to fit deep into the pocket without any clashes; and second, the compounds bound to DksA should have minimal exposed moieties. The compounds selected were further refined according to energy minimization as calculated by the CNS program. 23 compounds were obtained from MolPort and they were tested for their ability to interfere with DksA in a high throughput screen that combined in vitro transcription with highly specific and quantitative qRT-PCR. Five of these compounds, including N-(3,4-dimethoxyphenyl)-1H-1,2,4-triazole-3-carboxamide (1), prevented DksA-mediated repression of rpsM in vitro transcription to some degree. […] Without intending to be limited to any particular theory, the effect that 1 has on DksA-dependent rpsM or hisG gene transcription is potentially due to differences in promoter activity.
as §2

[6] = system: Salmonella; experiment: Disk diffusion assay; type: cell-based; conditions: among drugs that inhibited DksA function in the in vitro screens
Procedure: Salmonella was grown overnight in LB broth at 37° C. with shaking. The bacterial cultures were diluted by 1:1000 with PBS. 100 μl of the diluted samples were transferred into E-salts glucose agar. The bacteria were spread on the surface of the agar. Two discs (BBL blank paper discs 6 mm) were placed per/plate, and 10 μl of 10 mM or 100 mM stock compound were added to the discs. The plates were incubated at 37° C. overnight. The diameter of inhibition was expressed in mm.

[7] = target: T1, DksA; experiment: DksA-dependent activation of hisG in vitro transcription; type: biochemical; conditions: as little as 0.1 μM
Procedure: To measure the potency of a compound in inhibition of DksA biological function, rpsMtranscripts in vitro was determined by non-radioactive in vitro transcription reactions with qPCR analysis with divergent compounds. […] The amount of cDNA synthesized for 1 h at 42° C. was quantified by real-time PCR (qRT-PCR). The copy number of specific transcripts was calculated to the standard curve generated with known gene copy concentrations. […] Standard deviation was calculated from 3 independent experiments.
The compounds obtained in this screen were further analyzed for binding to the acidic pocket at the tip of DksA coiled-coil domain using the computer search program Dock. […] The compounds selected were further refined according to energy minimization as calculated by the CNS program. 23 compounds were obtained from MolPort and they were tested for their ability to interfere with DksA in a high throughput screen that combined in vitro transcription with highly specific and quantitative qRT-PCR. […]

[8] = system: intracellular Salmonella in J774 macrophage-like cells; experiment: Intracellular growth of Salmonella in macrophages; type: cell-based; conditions: for Antimicrobial activity against intracellular Salmonella growing in macrophages: J774 cells, cell culture media containing 10% fetal bovine serum
[9] = system: SPI2 effector sifA; experiment: Intracellular expression of SPI2 effector sifA in infected macrophages; type: cell-based; conditions: Salmonella-infected macrophages, 16 μg/ml
[10] = system: T2, E. coli RNA polymerase holoenzyme; experiment: rpsM in vitro transcription by RNA polymerase itself; type: biochemical; conditions: up to 10 μM
T2 construct: purchased NEB, Ipswich, MA
Procedure: as §1, with “Briefly, 5 nM pTIM-rpsMplasmid was mixed with 0.1-100 nM of compounds in 10 μl reaction buffer (40 mM HEPES [pH 7.4], 2 mM MgCl2, 60 mM potassium glutamate, 0.05% NP-40, 200 μM ATP, 200 μM GTP, 200 μM CTP, 200 μM UTP, and 5 nM E. coli RNA polymerase holoenzyme (NEB, Ipswich, MA) with 5 μM DksA.” left out
The compounds obtained in this screen were further analyzed for binding to the acidic pocket at the tip of DksA coiled-coil domain using the computer search program Dock. The analysis identified over 400 compounds. […] The compounds selected were further refined according to energy minimization as calculated by the CNS program. […]

[11] = system: J774 cells; experiment: Lactate dehydrogenase (LDH) release from infected host cells; type: cell-based; conditions: 32 μg/ml; 18 h after infection with wild-type or ΔdksA Salmonella; p=0.3
[12] = system: E. coli strain 3110; experiment: Minimum inhibitory concentration in EG minimum media, E. coli; type: cell-based; conditions: Escherichia coli
From the text: as §3

T1 sequence (P0A1G5 whole entry): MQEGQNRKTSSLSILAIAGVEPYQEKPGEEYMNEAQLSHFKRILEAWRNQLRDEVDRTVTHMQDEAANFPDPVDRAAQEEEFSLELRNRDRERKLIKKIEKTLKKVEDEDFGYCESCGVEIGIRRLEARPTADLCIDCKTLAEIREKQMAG
T2 sequence (P0A7Z4 whole entry): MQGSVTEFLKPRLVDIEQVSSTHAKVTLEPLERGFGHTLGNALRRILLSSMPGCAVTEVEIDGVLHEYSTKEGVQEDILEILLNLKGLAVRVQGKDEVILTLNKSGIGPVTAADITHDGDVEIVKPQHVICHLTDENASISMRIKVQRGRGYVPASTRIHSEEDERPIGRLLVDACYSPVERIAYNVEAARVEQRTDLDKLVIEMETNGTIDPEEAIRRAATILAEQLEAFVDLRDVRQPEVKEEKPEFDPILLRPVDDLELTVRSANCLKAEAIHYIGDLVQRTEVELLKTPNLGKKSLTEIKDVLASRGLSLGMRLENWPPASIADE
T2 sequence (P0A8V2 whole entry, further chain): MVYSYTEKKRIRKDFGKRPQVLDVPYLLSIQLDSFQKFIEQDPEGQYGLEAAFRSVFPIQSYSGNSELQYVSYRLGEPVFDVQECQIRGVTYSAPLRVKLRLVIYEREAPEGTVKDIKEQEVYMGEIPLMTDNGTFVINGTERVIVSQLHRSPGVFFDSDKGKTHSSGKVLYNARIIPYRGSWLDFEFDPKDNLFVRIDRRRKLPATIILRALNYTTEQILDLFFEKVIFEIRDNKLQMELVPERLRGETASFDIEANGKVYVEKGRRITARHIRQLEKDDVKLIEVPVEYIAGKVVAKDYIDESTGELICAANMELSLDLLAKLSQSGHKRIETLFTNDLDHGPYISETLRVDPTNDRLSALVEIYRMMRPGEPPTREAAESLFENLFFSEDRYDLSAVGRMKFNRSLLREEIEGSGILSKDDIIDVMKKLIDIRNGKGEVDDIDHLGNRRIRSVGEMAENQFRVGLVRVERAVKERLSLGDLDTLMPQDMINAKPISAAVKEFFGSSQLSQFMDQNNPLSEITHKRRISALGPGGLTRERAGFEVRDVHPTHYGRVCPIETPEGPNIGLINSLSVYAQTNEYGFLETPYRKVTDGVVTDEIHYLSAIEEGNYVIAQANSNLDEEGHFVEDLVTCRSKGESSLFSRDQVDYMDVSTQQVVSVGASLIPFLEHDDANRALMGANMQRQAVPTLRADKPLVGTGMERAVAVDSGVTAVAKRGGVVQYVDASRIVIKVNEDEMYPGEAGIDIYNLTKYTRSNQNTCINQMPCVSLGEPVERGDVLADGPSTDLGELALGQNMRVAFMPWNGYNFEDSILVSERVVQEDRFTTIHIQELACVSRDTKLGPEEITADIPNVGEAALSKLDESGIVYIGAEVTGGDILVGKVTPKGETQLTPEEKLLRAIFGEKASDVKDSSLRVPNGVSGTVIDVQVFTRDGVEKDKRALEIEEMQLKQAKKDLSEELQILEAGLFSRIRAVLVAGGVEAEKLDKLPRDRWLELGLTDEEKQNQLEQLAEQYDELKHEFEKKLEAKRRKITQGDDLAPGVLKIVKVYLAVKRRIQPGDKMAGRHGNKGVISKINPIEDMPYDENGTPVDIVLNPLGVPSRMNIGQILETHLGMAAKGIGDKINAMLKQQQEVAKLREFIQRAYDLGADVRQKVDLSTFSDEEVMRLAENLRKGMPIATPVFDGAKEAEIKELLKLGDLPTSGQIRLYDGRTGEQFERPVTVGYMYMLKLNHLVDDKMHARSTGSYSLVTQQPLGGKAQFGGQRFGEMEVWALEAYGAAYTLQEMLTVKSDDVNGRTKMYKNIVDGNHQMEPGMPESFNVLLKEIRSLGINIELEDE
T2 sequence (P0A8T7 whole entry, further chain): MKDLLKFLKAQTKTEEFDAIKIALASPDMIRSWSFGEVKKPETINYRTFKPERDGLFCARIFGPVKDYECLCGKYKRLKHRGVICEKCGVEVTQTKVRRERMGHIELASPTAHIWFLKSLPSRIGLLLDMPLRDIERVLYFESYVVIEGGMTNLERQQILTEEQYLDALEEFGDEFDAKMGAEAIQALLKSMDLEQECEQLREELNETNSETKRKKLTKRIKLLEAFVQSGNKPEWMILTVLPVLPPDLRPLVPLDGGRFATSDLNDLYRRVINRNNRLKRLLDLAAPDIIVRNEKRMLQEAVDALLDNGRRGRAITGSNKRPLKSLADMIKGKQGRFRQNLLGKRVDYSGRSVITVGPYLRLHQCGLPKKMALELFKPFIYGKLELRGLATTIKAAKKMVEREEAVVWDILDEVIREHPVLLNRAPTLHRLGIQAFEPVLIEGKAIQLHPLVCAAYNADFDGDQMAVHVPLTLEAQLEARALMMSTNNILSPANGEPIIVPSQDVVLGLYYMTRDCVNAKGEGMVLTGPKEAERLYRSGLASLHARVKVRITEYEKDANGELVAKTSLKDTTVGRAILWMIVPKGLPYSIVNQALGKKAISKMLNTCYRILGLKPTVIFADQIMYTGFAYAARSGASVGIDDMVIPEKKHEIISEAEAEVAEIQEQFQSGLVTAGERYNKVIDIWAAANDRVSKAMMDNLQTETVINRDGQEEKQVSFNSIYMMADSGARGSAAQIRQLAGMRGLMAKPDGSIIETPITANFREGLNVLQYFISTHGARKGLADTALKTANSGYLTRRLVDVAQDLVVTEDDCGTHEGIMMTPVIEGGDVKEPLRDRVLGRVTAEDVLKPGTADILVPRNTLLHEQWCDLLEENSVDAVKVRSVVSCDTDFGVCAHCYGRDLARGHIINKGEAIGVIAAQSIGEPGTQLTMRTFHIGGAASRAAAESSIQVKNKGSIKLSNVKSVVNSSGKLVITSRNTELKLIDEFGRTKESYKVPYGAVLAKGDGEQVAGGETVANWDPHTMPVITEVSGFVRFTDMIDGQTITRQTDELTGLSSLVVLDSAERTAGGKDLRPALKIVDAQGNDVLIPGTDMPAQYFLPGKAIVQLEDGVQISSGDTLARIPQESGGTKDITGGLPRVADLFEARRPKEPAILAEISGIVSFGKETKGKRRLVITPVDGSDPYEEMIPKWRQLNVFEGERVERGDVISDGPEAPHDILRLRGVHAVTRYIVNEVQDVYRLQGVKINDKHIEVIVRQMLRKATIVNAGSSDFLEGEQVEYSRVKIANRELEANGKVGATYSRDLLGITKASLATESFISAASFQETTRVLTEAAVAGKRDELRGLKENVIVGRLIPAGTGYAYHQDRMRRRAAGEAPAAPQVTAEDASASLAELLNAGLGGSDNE
T2 sequence (P0A800 whole entry, further chain): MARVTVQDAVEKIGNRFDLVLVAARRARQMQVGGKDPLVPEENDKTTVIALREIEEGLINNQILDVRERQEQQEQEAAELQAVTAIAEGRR
T2 sequence (P00579 whole entry, further chain): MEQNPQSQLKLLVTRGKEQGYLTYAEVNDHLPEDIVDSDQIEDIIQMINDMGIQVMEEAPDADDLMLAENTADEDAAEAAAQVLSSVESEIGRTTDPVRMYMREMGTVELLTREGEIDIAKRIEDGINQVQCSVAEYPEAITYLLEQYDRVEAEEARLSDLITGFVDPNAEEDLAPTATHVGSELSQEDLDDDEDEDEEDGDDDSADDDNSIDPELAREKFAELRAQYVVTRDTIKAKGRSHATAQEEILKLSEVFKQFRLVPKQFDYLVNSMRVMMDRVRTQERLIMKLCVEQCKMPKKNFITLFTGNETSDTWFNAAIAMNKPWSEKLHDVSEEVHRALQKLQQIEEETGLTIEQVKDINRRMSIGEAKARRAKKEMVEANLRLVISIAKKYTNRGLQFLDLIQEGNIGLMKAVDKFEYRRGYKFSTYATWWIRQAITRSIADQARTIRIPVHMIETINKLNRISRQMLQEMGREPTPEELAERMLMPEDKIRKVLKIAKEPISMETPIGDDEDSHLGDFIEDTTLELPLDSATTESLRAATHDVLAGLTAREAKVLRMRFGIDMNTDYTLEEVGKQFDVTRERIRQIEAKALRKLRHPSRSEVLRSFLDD

Compound | Compound Solubility, 1 μM [1] | Compound Solubility, 10 μM [1] | Compound Solubility, 100 μM [1] | Compound Solubility, 1 mM [1] | Compound Solubility, 10 mM [1] | Compound Solubility, 16 mg/ml [1] | In vitro transcription assay result, 0.1 μM [3] | In vitro transcription assay result, 1 μM [3] | IVT [3] | Growth in EG at concentration tested 1 μg/ml ([4]; 18 h) | Growth in EG at concentration tested 2 μg/ml ([4]; 18 h) | Growth in EG at concentration tested 4 μg/ml ([4]; 18 h) | Growth in EG at concentration tested 8 μg/ml ([4]; 18 h) | Growth in EG at concentration tested 16 μg/ml ([4]; 18 h) | MIC ([4]; Salmonella, 14028S, 18 h) | further results
COc1ccc(CCNC(=O)c2nc[nH]n2)cc1 [Compound 21, N-(4-methoxyphenethyl)-1H-1,2,4-triazole-3-carboxamide] | water | water | water | water | water | DMSO | no induction | no induction | 0.1 µM | + | + | + | + | + | 32 µg/mL (≈ 130 µM) | Anti-Salmonella activity of 4-nitroquinoline-N-oxide, nitrofurazone and mytomycin in combination [2]: enhanced the anti-Salmonella activity
COc1ccc(NC(=O)c2nc[nH]n2)cc1OC [Compound 1, N-(3,4-dimethoxyphenyl)-1H-1,2,4-triazole-3-carboxamide] | water | water | water | water | water | DMSO | no change | good repression | 1 µM | + | + | + | + | + | 32 µg/mL (≈ 129 µM) | Inhibition of DksA-mediated repression of rpsM in vitro transcription ([5]; 1 μM): completely inhibited; Activity against DksA-mediated repression of rpsM in vitro transcription ([5]; qualitative, listed as 916): excellent activity; also recorded: best in vitro efficacy; Anti-Salmonella activity in disk diffusion assays [6]: greatest anti-Salmonella activity; Inhibition of DksA-dependent activation of hisG in vitro transcription [7]: completely inhibited; MIC ([4]; read-out: Minimum inhibitory concentration): 32 µg/mL and 129 µM; Antimicrobial activity against intracellular Salmonella growing in macrophages [8]: potent antimicrobial activity; Antimicrobial activity against intracellular Salmonella growing in macrophages ([8]; listed as 916): inhibits intracellular growth; Intracellular growth of ΔdksA Salmonella ([8]; ΔdksA Salmonella, off-target control): unaffected; Intracellular expression of the SPI2 effector sifA [9]: repressed transcription; Intracellular expression of the SPI2 effector sifA ([9]; listed as 916): inhibits the intracellular expression; Effect on rpsM in vitro transcription by the RNA polymerase itself [10]: did not affect; Lactate dehydrogenase (LDH) released from J774 cells [11]: did not change; MIC [12]: 32 µg/mL; MIC ([12]; converted): 129 µM
